Experiments:
Type in all cases: in vivo, rat
[1] = test system: obese Zucker fa/fa rats; experiment: Fatty acid composition in liver and plasma of obese Zucker fa/fa rats (Example 19); conditions: 300 mg/day/kg gavage once daily for 10 days, delta-9-desaturated product of TTA
Description: Male obese Zucker fa/fa rats, weighing 100 g at the start of the experiment, were housed in pairs in metal wire cages in a room maintained at 12 h light-dark cycles and a constant temperature of 20±3° C. The animals were acclimatised for at least one week under these conditions before the start of the experiment.
TTA and palmitic acid (control), was suspended in 0.5% (w/v) carboxymethyl cellulose (CMC) and administered at a dose of 300 mg/day/kg body weight, by gastric intubation (gavage) once daily for 10 days. The rats were fasted for 2 hours before termination of the experiment. Blood and organs were collected. Total lipids were extracted from liver and plasma. The lipids were evaporated, saponified and esterified prior to separation using a Carlo Erba 2900 gas-chromatograph.

[2] = test system: obese Zucker (fa/fa) rats; experiment: Liver mitochondrial fatty acid oxidation, CPT-I and CPT-II after TTA feeding (Example 16); conditions: chow with 0.15% TTA
Description: Freshly isolated livers from individual old Zucker rats, were homogenised in ice-cold sucrose buffer (0.25 M sucrose, 10 mM HEPES (pH 7.4) and 2 mM EDTA). Post-nuclear and mitochondrial fractions were prepared using preparative differential centrifugation according to DeDuve et al. (De Duve, C., et al., Biochem. J., 60, 604-617 1955.) Modifications, purity and yield were as described earlier (Garras, A., et al., Biochim. Biophys. Acta, 1255, 154-160 1995.). Acid soluble products were measured in post-nuclear and mitochondrial enriched fractions, using [1-^14C]-palmitoyl-CoA and [1-^14C]-palmitoyl-L-carnitine (Radiochemical Centre, Amersham, England) as substrates as described earlier (Willumsen, N., et al., J. Lipid Res., 34, 13-22 1993. Carnitine palmitoyltransferase-I and -II activities were measured in the post-nuclear and mitochondrial fractions essentially as described by Bremer (Bremer, J., Biochim. Biophys. Acta, 665, 628-631 1981.) and 3-hydroxy-3-methylglutharyl-CoA synthase was measured according to Clinkenbeard et al. (Clinkenbeard, K. D., et al., J. Biol. Chem, 250, 3108-3116 1975.) in the mitochondrial fractions.
RNA extraction (Chomczynski, P., et al., Anal. Biochem., 162, 156-159 1987.), Northern blot analysis and slot blotting of RNA onto nylon filters, and hybridisation to immobilised RNA were performed as earlier described (Vaagenes, H., et al., Biochem. Pharmacol., 56, 1571-1582 1998.). […]
Obese Zucker (fa/fa) rats were given a standard chow either with (n=6) or without (n=5) 0.15% TTA. […] Fatty acid oxidation rates were measured using [1-^14C]-palmitoyl CoA or [1-^14C]-palmitoyl-L-carnitine as substrates (A) CPT-I (B) and CPT-II (C) were measured in the mitochondrial factions. […] The relative mRNA levels were determined by densiometric scanning of the autoradiograms and the different mRNA levels were normalised to the respective 28S rRNA and the means for the controls were set to 1. […] Values are expressed as the mean±S.D.

[3] = test system: 4 month old obese Zucker (fa/fa) rats; experiment: Blood insulin and glucose in 4 month old obese Zucker (fa/fa) rats (Example 13); conditions: 4 month old Zucker (fa/fa) rats, chow with 0.15% TTA, 21 days (FIG. 6)
Description: Glucose (GLU, Boehringer Mannheim, Germany), free fatty acids (NEFA, C ACS-ACOD kit; Wako Chemicals, Dalton, USA) and b-hydroxybutyrate (310-A kit; Sigma Diagnostics Inc., St. Louis, USA) concentrations were measured using enzymatic methods. Insulin concentrations were determined with radioimmunoassay by (CIS bio International, Gif sur Yvette, France) using rat insulin as standard in the Zucker rats. In the Wistar Charles River rats, plasma glucose concentrations were measured with the aid of Beckman Glucose Analyzer (Fullerton, Calif., USA). Plasma insulin levels were measured using a RIA kit from Linco Research Inc. (St. Charles, Mo., USA). Phospholipids were measured by the enzymatic method of bioMérieux, Marcy-l {grave over ( )}Etoile, France, Triacylglycerol by the Technicon Method no. SA4-0324L90, USA and Cholesterol by the Technicon Method no. SA4-0305L90, USA.
The rats were given a standard chow diet, either with (n=5) or without (n=6) 0.15% TTA. Following 21 days of treatment, blood was collected and the levels of insulin and glucose measured. Data are means±S.D.

Tetradecylthioacetic acid [TTA]
Monounsaturated tetradecylthioacetic acid, fatty acid composition in liver (% of total) [1]: 1.1 ± 0.2 % of total | Monounsaturated tetradecylthioacetic acid, fatty acid composition in plasma (% of total) [1]: 0.2 ± 0.1 % of total | Activity and mRNA levels of CPT-I ([2]; 21 days (FIG. 8B)): increase | Activity and mRNA levels of CPT-II ([2]; 21 days (FIG. 8C)): increase | Increase of liver fatty acid oxidation ([2]; 21 days, palmitoyl-CoA and palmitoyl-L-carnitine as substrates (FIG. 8A)): more than 7 fold | Blood glucose concentration [3]: reduces | Blood insulin concentration [3]: reduces

Reference: US6365628B1 (Thia Medica AS, priority 1998, dated 2002)
